Measured values: ChEMBL document CHEMBL6121031, “Optimizing Linezolid: Transforming It into a Selective MAO-B Inhibitor via a Toxicity-to-Activity Optimization Approach” (ACS Med Chem Lett, 2025)

Key:
[1] = target: T1, Amine oxidase [flavin-containing] A (Homo sapiens, UniProt P21397); assay: Inhibition of recombinant human MAO-A using kynuramine as substrate incubated for 15 mins by absorbance based assay
T1 sequence (P21397 whole entry): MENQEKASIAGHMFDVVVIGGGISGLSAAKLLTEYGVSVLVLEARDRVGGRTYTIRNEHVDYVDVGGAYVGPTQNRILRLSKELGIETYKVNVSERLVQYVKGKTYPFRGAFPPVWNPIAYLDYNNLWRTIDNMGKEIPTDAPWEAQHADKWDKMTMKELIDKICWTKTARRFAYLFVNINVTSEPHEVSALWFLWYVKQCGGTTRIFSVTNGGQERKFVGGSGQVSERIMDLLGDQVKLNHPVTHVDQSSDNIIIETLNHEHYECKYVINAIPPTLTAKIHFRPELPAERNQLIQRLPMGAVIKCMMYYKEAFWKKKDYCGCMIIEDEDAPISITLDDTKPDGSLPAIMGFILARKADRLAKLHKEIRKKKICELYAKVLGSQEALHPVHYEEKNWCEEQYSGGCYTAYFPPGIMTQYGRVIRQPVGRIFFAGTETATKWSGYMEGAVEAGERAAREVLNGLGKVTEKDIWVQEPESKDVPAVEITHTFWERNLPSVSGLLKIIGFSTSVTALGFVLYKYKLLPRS

[2] = target: T2, Amine oxidase [flavin-containing] B (Homo sapiens, UniProt P27338)
T2 sequence (P27338 whole entry): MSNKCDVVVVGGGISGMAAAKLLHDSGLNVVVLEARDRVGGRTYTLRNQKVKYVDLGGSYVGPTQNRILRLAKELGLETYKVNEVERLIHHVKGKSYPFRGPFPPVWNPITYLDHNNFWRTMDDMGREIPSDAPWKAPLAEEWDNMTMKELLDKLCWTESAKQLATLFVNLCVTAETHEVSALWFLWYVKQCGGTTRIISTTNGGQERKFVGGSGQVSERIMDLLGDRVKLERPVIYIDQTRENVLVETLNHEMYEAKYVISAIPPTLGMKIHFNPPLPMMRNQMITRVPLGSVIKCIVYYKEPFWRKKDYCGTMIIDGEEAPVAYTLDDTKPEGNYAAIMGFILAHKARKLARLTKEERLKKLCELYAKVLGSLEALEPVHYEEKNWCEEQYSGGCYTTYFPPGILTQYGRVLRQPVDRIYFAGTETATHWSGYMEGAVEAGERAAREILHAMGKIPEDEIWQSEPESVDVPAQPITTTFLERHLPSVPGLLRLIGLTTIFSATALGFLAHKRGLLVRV

[3] = system: Mycobacterium tuberculosis; assay: Antimycobacterial activity against Mycobacterium tuberculosis H37Rv measured after 7 days by MABA assay; format: functional; conditions: 168 h, time 7 day
[4] = Cytotoxicity against human THP-1 cells incubated for 3 days by Cell Titer-Glo Luminescent Cell Viability Assay; format: toxicity, cell-based
[5] = target: T2, Amine oxidase [flavin-containing] B; assay: Reversible competitive inhibition of human MAO-B assessed as residual activity before dialysis at 0.068 uM incubated for 30 mins relative to control; conditions: 0.5 h, read-out: Activity
[6] = target: T2, Amine oxidase [flavin-containing] B; assay: Reversible competitive inhibition of human MAO-B assessed as residual activity after dialysis at 0.068 uM incubated for 30 mins relative to control; conditions: 0.5 h, read-out: Activity
[7] = target: T2, Amine oxidase [flavin-containing] B; assay: Potency index, ratio of Pargyline IC50 to test compound IC50 for inhibition of recombinant human MAO-B using benzylamine as substrate incubated for 15 mins by absorbance based assay; conditions: 0.25 h
[8] = target: T2, Amine oxidase [flavin-containing] B; assay: Potency index, ratio of Clorgyline IC50 to test compound IC50 for inhibition of recombinant human MAO-B using benzylamine as substrate incubated for 15 mins by absorbance based assay; conditions: 0.25 h
[9] = target: T2, Amine oxidase [flavin-containing] B; conditions: 0.5 h

SMILES	IC50 [1]	IC50 [2]	MIC [3]	IC50 at 3 days [4]	activity at 0.068 µM [5]	activity at 0.068 µM [6]	Ratio IC50 [7]	Ratio IC50 [8]	activity at 0.028 µM [9]
CCCCS(=O)(=O)Nc1nnc(-c2ccc(N3CCSCC3)c(F)c2)s1	21.5 µM	50 nM	> 25 µg/mL						
O=C(Nc1nnc(-c2ccc(N3CCSCC3)c(F)c2)s1)C1CC1	> 40 µM	100 nM	> 25 µg/mL						
CS(=O)(=O)Nc1nnc(-c2ccc(N3CCSCC3)c(F)c2)s1	18.4 µM	40 nM	> 25 µg/mL						
CC(=O)Nc1nnc(-c2ccc(N3CCSCC3)c(F)c2)s1	8.96 µM	70 nM	> 25 µg/mL	> 300 µg/mL					
CC(=O)Nc1nnc(-c2ccc(N3CCCC3)c(F)c2)s1	13.2 µM	170 nM	> 25 µg/mL						
O=S(=O)(Nc1nnc(-c2ccc(N3CCSCC3)c(F)c2)s1)C1CC1	26 µM	50 nM	> 25 µg/mL						
CCS(=O)(=O)Nc1nnc(-c2ccc(N3CCSCC3)c(F)c2)s1	15.8 µM	30 nM	> 25 µg/mL	> 300 µg/mL	35%	73.5%	4	54	
CC(=O)Nc1nnc(-c2ccc(N3CCOCC3)c(F)c2)s1	> 40 µM	1020 nM	> 25 µg/mL						
C#CCN(C)Cc1ccccc1 [PARGYLINE]									34%
